Experimental data: patent US7737151B2, “Pyrazine kinase inhibitors” (Vertex Pharmaceuticals Incorporated, priority 2005, dated 2010)

Legend:
Assay type in all cases: biochemical
[1] = target: T1, Aurora-2 (Aurora A) (Homo sapiens, UniProt O14965); experiment: Aurora-2 (Aurora A) Inhibition Assay, coupled enzyme assay; conditions: 400 μM ATP, 570 μM Kemptide, 40 nM Aurora-2, 30° C.
T1 sequence (O14965 1-403): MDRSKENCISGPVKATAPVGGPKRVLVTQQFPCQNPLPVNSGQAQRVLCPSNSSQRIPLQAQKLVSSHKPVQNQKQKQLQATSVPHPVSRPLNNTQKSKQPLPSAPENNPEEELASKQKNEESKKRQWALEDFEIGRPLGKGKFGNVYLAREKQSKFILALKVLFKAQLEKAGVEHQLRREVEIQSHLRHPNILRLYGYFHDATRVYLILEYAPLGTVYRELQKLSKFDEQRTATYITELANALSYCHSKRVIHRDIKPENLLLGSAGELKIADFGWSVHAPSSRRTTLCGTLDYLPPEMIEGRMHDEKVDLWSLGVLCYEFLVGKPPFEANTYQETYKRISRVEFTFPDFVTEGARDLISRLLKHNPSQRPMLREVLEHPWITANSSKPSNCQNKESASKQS
Experimental: Compounds are screened for their ability to inhibit Aurora-2 using a standard coupled enzyme assay (Fox et al., Protein Sci., (1998) 7, 2249). Assays are carried out in a mixture of 100 mM Hepes (pH7.5), 100 mM MgCl2, 1 mM DTT, 25 mM NaCl, 2.5 mM phosphoenolpyruvate, 300 μM NADH, 30 μg/ml pyruvate kinase and 10 μg/ml lactate dehydrogenase. Final substrate concentrations in the assay are 400 μM ATP (Sigma Chemicals) and 570 μM peptide (Kemptide, American Peptide, Sunnyvale, Calif.). Assays are carried out at 30° C. and in the presence of 40 nM Aurora-2.
An assay stock buffer solution is prepared containing all of the reagents listed above, with the exception of Aurora-2 and the test compound of interest. 55 μl of the stock solution is placed in a 96 well plate followed by addition of 2 μl of DMSO stock containing serial dilutions of the test compound (typically starting from a final concentration of 7.5 μM). The plate is preincubated for 10 minutes at 30° C. and the reaction initiated by addition of 10 μl of Aurora-2. Initial reaction rates are determined with a Molecular Devices SpectraMax Plus plate reader over a 10 minute time course. IC50 and Ki data are calculated from non-linear regression analysis using the Prism software package (GraphPad Prism version 3.0cx for Macintosh, GraphPad Software, San Diego Calif., USA). Compounds I-1 and I-2 inhibit Aurora-2 at a Ki value of <0.1 uM.

[2] = target: Aurora-1 (Aurora B) (Homo sapiens, UniProt Q96GD4); experiment: Aurora-1 (Aurora B) Inhibition Assay (Radiometric); conditions: 800 μM ATP, Kemptide, 25° C.; read-out: Ki, Aurora-1 (Aurora B) radiometric assay (sentence prints Aurora-2)
Experimental: An assay buffer solution is prepared which consisted of 25 mM HEPES (pH 7.5), 10 mM MgCl2, 0.1% BSA and 10% glycerol. A 22 nM Aurora-B solution, also containing 1.7 mM DTT and 1.5 mM Kemptide (LRRASLG), is prepared in assay buffer. To 22 μL of the Aurora-B solution, in a 96-well plate, is added 2 μl of a compound stock solution in DMSO and the mixture allowed to equilibrate for 10 minutes at 25° C. The enzyme reaction is initiated by the addition of 16 μl stock [γ-^33P]-ATP solution (˜20 nCi/μL) prepared in assay buffer, to a final assay concentration of 800 μM. The reaction is stopped after 3 hours by the addition of 16 μL 500 mM phosphoric acid and the levels of ^33P incorporation into the peptide substrate are determined by the following method. […] Levels of non-enzyme catalysed background radioactivity are determined by adding 16 μL of the 500 mM phosphoric acid to control wells, containing all assay components (which acts to denature the enzyme), prior to the addition of the [γ-^33P]-ATP solution. Levels of enzyme catalysed ^33P incorporation are calculated by subtracting mean background counts from those measured at each inhibitor concentration. […] Ki values are calculated from initial rate data by non-linear regression using the Prism software package (Prism 3.0, Graphpad Software, San Diego, Calif.). […]

[3] = target: T2, FLT-3 (Homo sapiens, UniProt P36888); experiment: FLT-3 Inhibition Assay, radiometric filter-binding; conditions: 90 μM ATP, 0.5 mg/ml pE4Y, room temperature
T2 sequence (P36888 27-993): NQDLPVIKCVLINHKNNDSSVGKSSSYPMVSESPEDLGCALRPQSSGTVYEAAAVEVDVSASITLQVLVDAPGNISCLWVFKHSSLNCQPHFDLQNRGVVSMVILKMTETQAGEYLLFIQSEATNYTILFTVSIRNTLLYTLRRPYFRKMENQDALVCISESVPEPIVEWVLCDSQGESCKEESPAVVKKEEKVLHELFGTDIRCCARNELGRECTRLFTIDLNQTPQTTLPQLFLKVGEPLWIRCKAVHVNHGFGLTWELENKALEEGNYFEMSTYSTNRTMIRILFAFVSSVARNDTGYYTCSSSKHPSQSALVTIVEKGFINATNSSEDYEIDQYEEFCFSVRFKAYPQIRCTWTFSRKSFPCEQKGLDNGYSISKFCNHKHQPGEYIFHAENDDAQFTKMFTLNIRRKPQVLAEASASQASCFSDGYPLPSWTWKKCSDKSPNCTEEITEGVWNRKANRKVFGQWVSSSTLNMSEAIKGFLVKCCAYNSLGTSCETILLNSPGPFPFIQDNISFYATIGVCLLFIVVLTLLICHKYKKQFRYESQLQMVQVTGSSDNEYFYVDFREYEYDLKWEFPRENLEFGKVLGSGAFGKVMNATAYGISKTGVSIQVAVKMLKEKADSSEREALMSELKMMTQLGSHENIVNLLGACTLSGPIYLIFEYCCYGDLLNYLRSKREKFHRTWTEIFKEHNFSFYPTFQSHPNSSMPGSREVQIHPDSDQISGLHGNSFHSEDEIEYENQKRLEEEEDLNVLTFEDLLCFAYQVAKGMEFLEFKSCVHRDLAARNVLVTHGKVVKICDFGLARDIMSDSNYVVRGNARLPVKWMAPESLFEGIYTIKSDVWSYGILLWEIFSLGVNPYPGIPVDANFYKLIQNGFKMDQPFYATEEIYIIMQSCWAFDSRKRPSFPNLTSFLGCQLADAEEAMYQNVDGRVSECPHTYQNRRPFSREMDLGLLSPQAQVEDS
Experimental: Compounds are screened for their ability to inhibit FLT-3 activity using a radiometric filter-binding assay. This assay monitors the 33P incorporation into a substrate poly(Glu, Tyr) 4:1 (pE4Y). Reactions are carried out in a solution containing 100 mM HEPES (pH 7.5), 10 mM MgCl2, 25 mM NaCl, 1 mM DTT, 0.01% BSA and 2.5% DMSO. Final substrate concentrations in the assay are 90 μM ATP and 0.5 mg/ml pE4Y (both from Sigma Chemicals, St Louis, Mo.). The final concentration of a compound of the present invention is generally between 0.01 and 5 μM. Typically, a 12-point titration is conducted by preparing serial dilutions from 10 mM DMSO stock of test compound. Reactions are carried out at room temperature.
Two assay solutions are prepared. Solution 1 contains 100 mM HEPES (pH 7.5), 10 mM MgCl2, 25 mM NaCl, 1 mg/ml pE4Y and […] (containing 0.3 mCi of [γ-33^P]ATP for each reaction). Solution 2 contains 100 mM HEPES (pH 7.5), 10 mM MgCl2, 25 mM NaCl, 2 mM DTT, 0.02% BSA and 3 nM FLT-3. The assay is run on a 96 well plate by mixing 50 μl each of Solution 1 and […] of the compounds of the present invention. The reaction is initiated with Solution 2. […] The amount of ^33P incorporation into pE4y is analyzed by a Packard Top Count Microplate Scintillation Counter (Meriden, Conn.). […]

Chain of Aurora-1 (Aurora B) (Q96GD4 whole entry): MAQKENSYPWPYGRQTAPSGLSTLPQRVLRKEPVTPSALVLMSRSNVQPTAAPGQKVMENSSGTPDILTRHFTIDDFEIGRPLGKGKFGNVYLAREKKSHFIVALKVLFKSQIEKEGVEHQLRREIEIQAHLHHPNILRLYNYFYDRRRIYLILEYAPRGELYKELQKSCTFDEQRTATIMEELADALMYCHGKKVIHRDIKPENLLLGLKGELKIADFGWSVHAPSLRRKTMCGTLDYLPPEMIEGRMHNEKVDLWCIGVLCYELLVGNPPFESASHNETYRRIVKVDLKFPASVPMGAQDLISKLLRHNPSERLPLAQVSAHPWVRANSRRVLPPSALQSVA

Ki [1] [nM] | Ki [2] [nM] | Ki [3] [nM] | SMILES
< 100 | < 1000 | < 1000 | Cc1cc(Nc2cncc(Sc3ccc(NC(=O)C4CC4)cc3)n2)[nH]n1 [Compound I-2, N-(4-(6-(3-methyl-1H-pyrazol-5-ylamino)pyrazin-2-ylthio)phenyl)cyclopropanecarboxamide]
< 100 | – | < 1000 | Cc1cnc(Nc2cncc(Sc3ccc(NC(=O)C4CC4)cc3)n2)s1 [Compound I-1, N-(4-(6-(5-methylthiazol-2ylamino)pyrazin-2-ylthio)phenyl)cyclopropanecarboxamide]
